Results on one compound are retold here after article PMC10756276, “Highly specific σ2R/TMEM97 ligand FEM-1689 alleviates neuropathic pain and inhibits the integrated stress response” (Proceedings of the National Academy of Sciences of the …, 2023).

One assay has as its target BZP Rat Brain. Description: PDSP competitive binding assay.
A further assay concerns the target 5HT2C (Homo sapiens, UniProt P28335). The experiment in a line: PDSP competitive binding assay. The following applies: 10 µM test article; read-out: Ki: primary assay inhibition of radioligand binding, 5HT2C.
A further assay deals with M2 (Homo sapiens, UniProt P08172). The experiment in a line: PDSP competitive binding assay. To be noted: 10 µM test article; read-out: Ki: primary assay inhibition of radioligand binding, M2.
A further assay deals with 5HT3 (Homo sapiens, UniProt P46098). The experiment in a line: PDSP competitive binding assay. The following applies: 10 µM test article; read-out: Ki: primary assay inhibition of radioligand binding, 5HT3.
The next assay deals with T1, 5HT7 (Homo sapiens, UniProt P34969).
T1 construct: purchased NIMH Psychoactive Drug Screening Program (PDSP), University of North Carolina at Chapel Hill
Description: PDSP competitive binding assay. The following applies: 10 µM test article; read-out: Ki: primary assay inhibition of radioligand binding, 5HT7.

Assay [1] deals with p-eIF2α, eIF2A, p-PERK, BiP in HEK293T cells. The experiment in a line: Western blot of ISR-related proteins in HEK293T cells. It counts as cell-based, human. To be noted: HEK293T, 0.1, 1, 10, 100 nM, 16 h (overnight). As for the experimental part:
Huma n e mbryon ic kidn ey (HEK) 293T ce lls (ATCC # C RL- 321 6) were ge nerously dona ted by th e Ca mpb ell Lab (UT Dallas). Cell stock s were previously fr ozen at 1 million cells/ml in 90% fetal bov ine s erum (F BS, ThermoFisher #SH300880340) and 10% DMSO. Cells were grown in complete medium (10% FBS, 1% Pen- Strep in DMEM/F12 + GlutaMax (Gibco #10565- 018) in T-75 flasks (Greiner Bio- One #658175). Cells were maintained at 37 °C with 5% CO2 and passaged twice before being plated onto either 96-well or 6-well plates for ICC/spectrophotometry and western blotting, respectively. Cells were counted using the TC20 automated cell counter (Bio- R ad #1450102) using a 1:1 dilution of trypan blue (Gibco #15250061).
Concentr ations were transformed to […] values and data w as fit to a non- linear regression curve (inhibitor vs response, varia ble slop e , four p aram eters) constrain ed at top at 1 00, bott om at p -eIF2α levels at 300nM, […]
HEK cells were plated at 60,000 cells per well onto six-well plates (ThermoFisher # 351146) for 24 hours before being treated w ith F EM- 1689 overnight. Protein extractions and western blotting w as perfor med as previous ly published (10) . In brief, media fr om the cells was removed and cells were washed once with 1X
PBS. Cells were lysed in the well with radioimmunoprecipitation assay (RIPA) buffer consisting of 25 mM Tris, 150 mM NaCl, 0.1% SDS, 0.5% Na deoxycholate, 1% Triton X-100 with pr otease and phosphatas e inhibitor cocktails (Sigma Aldrich P8340, P5726, P0044 – 1:100 each). Cells were centr ifuged at 4 °C at 14,000 rpm for 10 min. The supernatant was used for downstream analysis. Protein was quantif ied using the Pierce BC A Protein Assay kit (Thermo Scientific, #23225) according to the manufacturer’s instructions.
Prote in samp les were de na tured usin g 4X L aem mli Sa mple buff er (BioR ad #1 610 747) and h eat ed at 95 °C for 5 min. 20 µg of protein samples were loaded onto 4- 20% Stain- Free Criterion TGX gels (BioRad #5678094). Gels were run in Tris/Glycine/SDS running buffer ( BioRad #1610772) at 120V for roughly 1.5 hours. St ain- Free gels wer e activated for 5 min pr ior to t he transf er step. Protein was transferred for 10 min onto low fluorescence poly vinylidene difluor ide (PVDF ) using a TransBlot Transfer kit (BioRad #1704275) and a Transblot Turbo transfer system (BioRad). Onc e transferred, total protein was imaged immediately using a ChemiDoc MP system (BioRad). Blots were allowed to dry for 5 min and were blocked with 5% non- fat milk in Tr is buffered saline (T BS)-Tween 20 (0.05%). Antibodies were diluted in 1% non- fat m ilk in TBS- Twe en 20. Primary ant ibo dies used in this st udy w ere: p- eIF 2α (1:1000, C ell Signaling #3398), t-eIF2α […]
In general terms: Immunoblotting shows a protein as a band on a membrane.

In another assay the target is D4 (Homo sapiens, UniProt P21917). Description: PDSP competitive binding assay. The following applies: 10 µM test article; read-out: Ki: primary assay inhibition of radioligand binding, D4.
Another assay concerns the target KOR (Homo sapiens, UniProt P41145). The experiment in a line: PDSP competitive binding assay.

“Also recorded” adds a separate entry of the source. Where two headings read alike, the source gives them in different places.

Broadly, the Ki is a measure of affinity in units of concentration, obtained from inhibition or displacement. What is called inhibition is how much of the control response was suppressed. On to `OCCCN1CC[C@@H]2C[C@H]1c1cc(-c3ccc(C(F)(F)F)cc3)ccc12` [FEM-1689], for which the “LogKi, BZP Rat Brain” value at BZP Rat Brain (dose response curve, given as LogKi with negative sign) is on record as -5.18. Besides, the Ki at BZP Rat Brain (dose response curve, read-out: Ki, BZP Rat Brain) is 6.59 µM; on BZP Rat Brain (single determination, read-out: BZP Rat Brain Ki), 6.59 µM; at KOR (Run 1, read-out: Ki, KOR) it was 4.7 µM; on KOR (Run 2, read-out: Ki, KOR), 9.49 µM; on KOR (read-out: KOR Ki) it was 7.09 ± 2.4 µM. For the same compound, the inhibition at 10 µM on 5HT2C, on M2, at 5HT3, at 5HT7 and on D4 was less than 50% each time. Moreover, the “BiP level (western blot)” value in assay [1] is “remained stable; also recorded: remained unchanged”. In assay [1], the “eIF2A level (western blot)” value was “concentration-dependent reduction; also recorded: significant reduction”. In addition, the “p-PERK level (western blot)” value in assay [1] is on record as “concentration-dependent reduction; also recorded: significant reduction”. In addition, in assay [1], the “p-eIF2α level (western blot)” value is “concentration-dependent reduction; also recorded: significant reduction”.
